In US5955464A, “4-anilinoquinazoline derivatives bearing a heteroaryl substituted at the 6-position and possessing anti-cell-proliferation properties” (Zeneca Limited, priority 1994, dated 1999):
One block for each molecule: values may come before it.

What was measured:
[1] = system: human mammary carcinoma which expresses EGF receptor tyrosine kinase; conditions: athymic nude mice; Toi et al., 1990; cited from earlier work
[2] = system: another carcinoma which does not express EGF receptor tyrosine kinase; conditions: athymic nude mice; Toi et al., 1990; cited from earlier work
KB cells = assay: in vitro assay of inhibition of EGF-stimulated growth of the human naso-pharyngeal cancer cell line KB (Test (b)); format: cell-based; conditions: 72 h, EGF 10 ng/ml, 3 days
Procedure: (b) An in vitro assay which determines the ability of a test compound to inhibit the EGF-stimulated growth of the human naso-pharyngeal cancer cell line KB. KB cells were seeded into wells at a density of 1×10^4 -1.5×10^4 cells per well and grown for 24 hours in DMEM supplemented with 5% FCS (charcoal-stripped). Cell growth was determined after incubation for 3 days by the extent of metabolism of MTT tetrazolium dye to furnish a bluish colour. Cell growth was then determined in the presence of EGF (10 ng/ml) or in the presence of EGF (10 ng/ml) and a test compound at a range of concentrations. An IC50 value could then be calculated.

liver hepatocyte growth = assay: in vivo assay in male rats of inhibition of TGFα-stimulated liver hepatocyte growth (Test (c)); conditions: Rattus norvegicus, usually oral, inhibition of BrdU uptake, approximate ED50
Procedure: (c) An in vivo assay in a group of male rats which determines the ability of a test compound (usually administered orally as a ball-milled suspension in 0.5% polysorbate) to inhibit the stimulation of liver hepatocyte growth caused by the administration of the growth factor TGFα (400 μg/kg subcutaneously, usually dosed twice, 3 and 7 hours respectively after the administration of the test compound).
In a control group of rats, the administration of TGFα causes on average a 5-fold stimulation of liver hepatocyte growth.
Cell-growth in the control and test animals is determined as follows:
On the morning of the day after the dosing of the test compound (or 0.5% polysorbate in the control group), the animals are dosed with bromodeoxyuridine (BrdU; 100 mg/kg intraperitoneally). The animals are killed four hours later and the livers are excised. […] Further tests were carried out using a range of doses of the test compounds to allow the calculation of an approximate ED50 value for the inhibition of liver hepatocyte proliferation as determined by inhibition of the uptake of BrdU.

[3] = target: T1, EGF receptor tyrosine kinase (Homo sapiens, UniProt P00533); assay: in vitro assay of inhibition of the enzyme EGF receptor tyrosine kinase (Test (a)); format: biochemical; conditions: EGF receptor tyrosine kinase from A-431 cells
T1 construct: Receptor tyrosine kinase was obtained in partially purified form from A-431 cells; endogenous in cells; host or cells: A-431 cells (human vulval carcinoma), Triton X-100-solubilised membrane fraction
Procedure: (a) An in vitro assay which determines the ability of a test compound to inhibit the enzyme EGF receptor tyrosine kinase. Receptor tyrosine kinase was obtained in partially purified form from A-431 cells (derived from human vulval carcinoma) by the procedures described below which are related to those described by Carpenter et al., J. Biol. Chem., 1979, 254, 4884, Cohen et al, J. Biol. Chem., 1982, 257, 1523 and by Braun et al., J. Biol. Chem., 1984, 259, 2051.
A-431 cells were grown to confluence using Dulbecco's modified Eagle's medium (DMEM) containing 5% fetal calf serum (FCS). The obtained cells were homogenised in a hypotonic borate/EDTA buffer at pH 10.1. The homogenate was centrifuged at 400 g for 10 minutes at 0-4° C. The supernatant was centrifuged at 25,000 g for 30 minutes at 0-4° C. […]
The test compound/EGF mixture solution (5 μl) was added to the test enzyme solution (10 μl) and the mixture was incubated at 0-4° C. for 30 minutes. […] Radioactivity present in the filter paper was measured using a liquid scintillation counter (Sequence A). […]
Receptor tyrosine kinase inhibition was calculated as follows: [formula]
The extent of inhibition was then determined at a range of concentrations of test compound to give an IC50 value.

[4] = system: xenografts of the human vulval epidermoid carcinoma cell line A431; assay: in vivo assay in athymic nude mice of inhibition of growth of A431 xenografts (Test (d)); set-up: species or system athymic nude mice (human A431 xenograft); conditions: 200 mg/kg/day, once daily, usually oral
Procedure: (d) An in-vivo assay in a group of athymic nude mice (strain ONU:Alpk) which determines the ability of a test compound (usually administered orally as a ball-milled suspension in 0.5% polysorbate) to inhibit the growth of xenografts of the human vulval epidermoid carcinoma cell line A431.
A431 cells were maintained in culture in DMEM supplemented with 5% FCS and 2 mM glutamine. Freshly cultured cells were harvested by trypsinization and injected subcutaneously (10 million cells/0.1 ml/mouse) into both flanks of a number of donor nude mice. When sufficient tumour material was available (after approximately 9 to 14 days), fragments of tumour tissue were transplanted into the flanks of recipient nude mice (test day 0). On the eighth day after transplantation (test day 7) groups of 8 to 10 mice with similar-sized tumours were selected and dosing of the test compound was commenced. Once-daily dosing of test compound was continued for a total of 13 days (test days 7 to 19 inclusive). In some studies the dosing of the test compound was continued beyond test day 19, for example to test day 26. In each case, on the following day the animals were killed and final tumour volume was calculated from measurements of the length and width of the tumours. Results were calculated as a percentage inhibition of tumour volume relative to untreated controls.

[5] = system: EGF receptor tyrosine kinase; conditions: in words; Fry et al., Science, 1994, 265, 1093; cited from earlier work

T1 sequence (P00533 25-1210): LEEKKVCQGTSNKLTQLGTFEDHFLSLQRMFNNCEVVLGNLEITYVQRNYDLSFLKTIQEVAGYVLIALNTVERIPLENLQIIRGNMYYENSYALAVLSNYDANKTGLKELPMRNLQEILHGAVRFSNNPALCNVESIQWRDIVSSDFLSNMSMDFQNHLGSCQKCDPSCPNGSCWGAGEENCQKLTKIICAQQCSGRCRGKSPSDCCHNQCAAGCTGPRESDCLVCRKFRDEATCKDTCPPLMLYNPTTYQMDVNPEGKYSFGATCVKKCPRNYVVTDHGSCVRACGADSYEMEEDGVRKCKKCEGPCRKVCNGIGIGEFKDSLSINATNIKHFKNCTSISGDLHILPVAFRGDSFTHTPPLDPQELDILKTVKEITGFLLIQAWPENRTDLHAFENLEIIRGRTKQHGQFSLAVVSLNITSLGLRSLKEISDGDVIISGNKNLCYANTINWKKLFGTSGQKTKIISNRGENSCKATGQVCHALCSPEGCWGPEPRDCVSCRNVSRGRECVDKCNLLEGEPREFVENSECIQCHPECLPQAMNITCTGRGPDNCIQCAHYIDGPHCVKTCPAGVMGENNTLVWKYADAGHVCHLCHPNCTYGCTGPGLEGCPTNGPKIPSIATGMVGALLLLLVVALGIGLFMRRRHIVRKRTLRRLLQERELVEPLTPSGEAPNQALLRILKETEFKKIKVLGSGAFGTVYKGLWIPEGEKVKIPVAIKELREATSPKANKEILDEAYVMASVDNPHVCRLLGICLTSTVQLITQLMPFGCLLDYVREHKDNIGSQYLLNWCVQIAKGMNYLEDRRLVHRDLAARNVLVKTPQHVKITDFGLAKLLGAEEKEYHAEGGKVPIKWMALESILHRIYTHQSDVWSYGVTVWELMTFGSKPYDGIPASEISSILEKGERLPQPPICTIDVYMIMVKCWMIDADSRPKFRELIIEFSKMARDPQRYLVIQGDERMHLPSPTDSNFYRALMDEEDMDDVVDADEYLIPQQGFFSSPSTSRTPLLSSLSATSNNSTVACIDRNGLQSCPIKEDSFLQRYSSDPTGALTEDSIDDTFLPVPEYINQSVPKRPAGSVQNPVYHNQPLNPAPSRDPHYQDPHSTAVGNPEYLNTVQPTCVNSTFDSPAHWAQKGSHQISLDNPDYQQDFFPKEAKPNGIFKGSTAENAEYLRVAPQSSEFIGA
T1 sequence (P01133 971-1023 partner limits assumed): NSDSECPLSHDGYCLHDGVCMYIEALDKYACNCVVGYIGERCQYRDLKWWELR

Compound: O=CN/C=C/c1cc(O)ccc1O [erbstatin]
- growth of transplanted human mammary carcinoma expressing EGF receptor tyrosine kinase [1]: specifically attenuates the growth
- growth of another carcinoma not expressing EGF receptor tyrosine kinase [2]: without effect on the growth

- IC50 (KB cells): 510 nM
- IC50 [3]: 26 nM
Compound: Cc1cccc(Nc2ncnc3ccc(-n4ccnc4)cc23)c1 [4-(3-methylanilino)-6-(1-imidazolyl)quinazoline]
- ED50 (liver hepatocyte growth): < 12.5 mg/kg
- inhibition in Test (d) (percentage inhibition of tumour volume) [4]: 63%

Compound: COc1cc2ncnc(Nc3cccc(Br)c3)c2cc1OC [4-(3-bromoanilino)-6,7-dimethoxyquinazoline]
- inhibition of EGF receptor tyrosine kinase [5]: highly potent inhibitor
